Tested on: healthy male alcohol drinkers
Experiment: Phase 1 single-ascending-dose study of compound (2) coadministered with ethanol: safety
Type: in vivo, human
Experimental: This was a single-center, randomized, double-blind, placebo-controlled, single-ascending-dose cohort study to evaluate the safety and tolerability of the coadministration of up to 6 dose levels of compound (2) (25 mg, 50 mg, 100 mg, 200 mg, 400 mg and 600 mg) and EtOH in healthy male alcohol drinkers.
Within 27 days of the medical screening visit, subjects were enrolled and attended an inpatient Qualification Phase in which they received up to 5 standard drinks (14 grams of EtOH each; oral solution of vodka containing 40% [v/v] EtOH, mixed with a non-carbonated beverage, one drink every 30 minutes) to evaluate their tolerance to repeat administration to ensure they could safely tolerate the planned EtOH treatment. A minimum washout interval of 44 hours was performed between initiation of the last EtOH administration in the Qualification Phase and study drug administration in the Treatment Phase.
Following qualification, eligible subjects were enrolled and randomized to receive compound (2) or placebo in a 3:1 fashion in each of 6 cohorts (8 subjects per cohort). As a safety precaution, no more than 4 subjects were administered study drug on any given day. Planned compound (2) dose levels included doses of 25 mg, 50 mg, 100 mg, 200 mg, 400 mg, and 600 mg. Study drug administration occurred approximately 1 hour following ingestion of a standardized (moderate-fat) meal. Approximately 2 hours after receiving the study drug, subjects began a session of repeat EtOH administration, during which they could receive up to 5 doses of EtOH (14 grams each, approximately 1 standard drink) every 30 minutes, or until a stopping criterion applied. Safety assessments, pharmacodynamic assessments and pharmacokinetic blood sample collections were obtained up to 48 hours post-dose. Subjects were discharged after 48-hour post-dose procedures were completed and the investigator deemed it safe to do so. Subjects returned for the safety follow-up visit approximately 7 (±2) days following discharge from the Treatment Phase or after early discontinuation from the study.
The primary endpoints included frequency and severity of adverse events (AEs), ethanol reaction (ER) scores and flushing, laboratory values, vital signs, and electrocardiograms (ECGs).
Subjects' ER scores and flushing were summarized descriptively by timepoint, category and treatment. In addition, flushing, ER heat sensation and ER palpitation were compared between each of the active doses and placebo using a mixed-effect model for repeated measures (MMRM) analysis with treatment, visit, and treatment by visit as fixed effects and baseline as a covariate. The actual value was used as the dependent variable and visit included pre-EtOH, 30 minutes, 60 minutes, 90 minutes, 120 minutes, 150 minutes and 3 hours relative to the first EtOH administration in Treatment Phase. The variance-covariance matrix was assumed to be unstructured. […] Results were presented as least square means (LSMEANS), treatment differences in LSMEANS, 95% confidence intervals (CI) and p-values.
Vital signs measurements (respiratory rate, systolic and diastolic blood pressure, and heart rate) were summarized by treatment and visit. Heart rate and diastolic blood pressure were also compared between each of the active doses and placebo using an MMRM analysis with treatment, visit, and treatment by visit as fixed effects and baseline as a covariate.
Twelve-lead ECG results were summarized by timepoint and treatment, and frequencies (numbers and percentages) were calculated for the overall evaluation. Concomitant medications, clinical laboratory evaluations (raw data and change from baseline, as applicable) and physical examination findings were listed.

[1] = 200 mg, 135 min after first EtOH
[2] = 400 mg, 15 min after first EtOH
[3] = 400 mg, 45 min after first EtOH
[4] = 400 mg, 75 min after first EtOH
[5] = 400 mg, 105 min after first EtOH
[6] = 400 mg, 135 min after first EtOH
[7] = 600 mg, 15 min after first EtOH
[8] = 600 mg, 45 min after first EtOH
[9] = 600 mg, 75 min after first EtOH
[10] = 600 mg, 105 min after first EtOH
[11] = 600 mg, 135 min after first EtOH
[12] = Overall (N = 36), 15 min after first EtOH
[13] = Overall (N = 36), 45 min after first EtOH
[14] = Overall (N = 36), 75 min after first EtOH
[15] = Overall (N = 36), 105 min after first EtOH
[16] = Overall (N = 36), 135 min after first EtOH

O=C(NCc1ccc(-c2ccn(COP(=O)(O)O)c(=O)c2)cc1)c1c(Cl)cccc1Cl [Compound (2), phosphoric acid mono-(4-{4-[(2,6-dichloro-benzoylamino)-methyl]-phenyl}-2-oxo-2H-pyridin-1-ylmethyl) ester]
Diastolic Blood Pressure, Mean [1]: 69.3 mmHg | Heart Rate, Mean [1]: 96.2 beats/min | Systolic Blood Pressure, Mean [1]: 124.0 mmHg | Diastolic Blood Pressure, Mean (200 mg, Pre-EtOH): 73.8 mmHg | Heart Rate, Mean (200 mg, Pre-EtOH): 60.2 beats/min | Systolic Blood Pressure, Mean (200 mg, Pre-EtOH): 119.8 mmHg | subjects with TEAE of sinus tachycardia (200 mg, after EtOH): three | subjects with TEAE of tachycardia (200 mg, after EtOH): one | subjects with TEAE of tachypnea (200 mg, after EtOH): One | QTcF Interval, Aggregate, Mean (200 mg, prior to initiation of repeat EtOH administration session): 400.2 ms | subjects reporting a TEAE (400 mg): 100% | Diastolic Blood Pressure, Mean [2]: 71.3 mmHg | Systolic Blood Pressure, Mean [2]: 112.8 mmHg | Diastolic Blood Pressure, Mean [3]: 71.8 mmHg | Heart Rate, Mean [3]: 81.2 beats/min | Systolic Blood Pressure, Mean [3]: 120.0 mmHg | QTcF Interval, Aggregate, Mean (400 mg, 1 hour after initiation of repeat EtOH administration session): 394.8 ms | Diastolic Blood Pressure, Mean [4]: 70.5 mmHg | Heart Rate, Mean [4]: 82.7 beats/min | Systolic Blood Pressure, Mean [4]: 119.3 mmHg | Diastolic Blood Pressure, Mean [5]: 72.2 mmHg | Heart Rate, Mean [5]: 86.2 beats/min | Systolic Blood Pressure, Mean [5]: 118.5 mmHg | Diastolic Blood Pressure, Mean [6]: 71.0 mmHg | Heart Rate, Mean [6]: 83.7 beats/min | Systolic Blood Pressure, Mean [6]: 118.8 mmHg | Diastolic Blood Pressure, Mean (400 mg, Pre-EtOH): 71.7 mmHg | Heart Rate, Mean (400 mg, Pre-EtOH): 61.2 beats/min | Systolic Blood Pressure, Mean (400 mg, Pre-EtOH): 115.3 mmHg | QTcF Interval, Aggregate, Mean (400 mg, prior to initiation of repeat EtOH administration session): 396.7 ms | subjects reporting a TEAE (600 mg): 83.3% | Diastolic Blood Pressure, Mean [7]: 75.0 mmHg | Systolic Blood Pressure, Mean [7]: 122.3 mmHg | Diastolic Blood Pressure, Mean [8]: 75.0 mmHg | Heart Rate, Mean [8]: 85.2 beats/min | Systolic Blood Pressure, Mean [8]: 127.3 mmHg | QTcF Interval, Aggregate, Mean (600 mg, 1 hour after initiation of repeat EtOH administration session): 394.3 ms | Diastolic Blood Pressure, Mean [9]: 74.2 mmHg | Heart Rate, Mean [9]: 91.8 beats/min | Systolic Blood Pressure, Mean [9]: 130.2 mmHg | Diastolic Blood Pressure, Mean [10]: 72.0 mmHg | Heart Rate, Mean [10]: 91.8 beats/min | Systolic Blood Pressure, Mean [10]: 126.8 mmHg | Diastolic Blood Pressure, Mean [11]: 74.8 mmHg | Heart Rate, Mean [11]: 92.3 beats/min | Systolic Blood Pressure, Mean [11]: 127.7 mmHg | Diastolic Blood Pressure, Mean (600 mg, Pre-EtOH): 75.2 mmHg | Heart Rate, Mean (600 mg, Pre-EtOH): 61.2 beats/min | Systolic Blood Pressure, Mean (600 mg, Pre-EtOH): 120.2 mmHg | QTcF Interval, Aggregate, Mean (600 mg, prior to initiation of repeat EtOH administration session): 393.8 ms | deaths or serious adverse events (25-600 mg oral with up to 5 doses of EtOH (14 g each)): no deaths or serious adverse events | Diastolic Blood Pressure, Mean [12]: 74.0 mmHg | Systolic Blood Pressure, Mean [12]: 118.8 mmHg | Diastolic Blood Pressure, Mean [13]: 73.4 mmHg | Heart Rate, Mean [13]: 76.6 beats/min | Systolic Blood Pressure, Mean [13]: 122.0 mmHg | QTcF Interval, Aggregate, Mean (Overall (N = 36), 1 hour after initiation of repeat EtOH administration session): 401.1 ms | Diastolic Blood Pressure, Mean [14]: 72.5 mmHg | Heart Rate, Mean [14]: 82.9 beats/min | Systolic Blood Pressure, Mean [14]: 122.3 mmHg | Diastolic Blood Pressure, Mean [15]: 71.3 mmHg | Heart Rate, Mean [15]: 85.3 beats/min | Systolic Blood Pressure, Mean [15]: 121.7 mmHg | Diastolic Blood Pressure, Mean [16]: 72.8 mmHg | Heart Rate, Mean [16]: 82.5 beats/min | Systolic Blood Pressure, Mean [16]: 121.3 mmHg | Diastolic Blood Pressure, Mean (Overall (N = 36), Pre-EtOH): 73.4 mmHg | Heart Rate, Mean (Overall (N = 36), Pre-EtOH): 59.3 beats/min | Systolic Blood Pressure, Mean (Overall (N = 36), Pre-EtOH): 117.3 mmHg | QTcF Interval, Aggregate, Mean (Overall (N = 36), prior to initiation of repeat EtOH administration session): 399.4 ms | changes in diastolic blood pressure compared with placebo (after EtOH administration): no significant changes | changes in systolic blood pressure compared with placebo (after EtOH administration): no significant changes | subjects reporting a TEAE (all compound (2)-treated subjects): 88.9% | incidence of flushing and feeling hot compared with placebo (all doses): higher | compound (2)-treated subjects who did not consume all 5 EtOH administrations due to TEAEs (all doses, N = 36): 5.6% | flushing (all other doses (50-600 mg)): observed | tolerability (all treatments): generally well tolerated | ER subjective assessment compared with placebo (heat sensation, palpitations): more likely to report feeling heat sensation and feeling palpitations

Reference: patent publication US20210220376A1, “ADDICTION TREATMENT OF AN ALCOHOL-CONSUMING PATIENT POPULATION” (Amygdala Neurosciences, Inc., priority 2018, published 2021)
